Measured values taken from patent publication US9273057B2 (Bristol-Myers Squibb Company, priority 2012, dated 2016).
pIC50: −log10 of the molar value. Counter-ions that a name gives are not always drawn.

Biological target: CK2A1 (CK2α/β) (Homo sapiens, UniProt P68400)
Experiment: CK2 kinase assay, CK2A1 (CK2α/β)
Format: biochemical
Conditions: Table A; read-out: CK2A1 (CK2α/β) (IC50)

CK2A1 (CK2α/β), sequence (P68400 whole entry, species assumed): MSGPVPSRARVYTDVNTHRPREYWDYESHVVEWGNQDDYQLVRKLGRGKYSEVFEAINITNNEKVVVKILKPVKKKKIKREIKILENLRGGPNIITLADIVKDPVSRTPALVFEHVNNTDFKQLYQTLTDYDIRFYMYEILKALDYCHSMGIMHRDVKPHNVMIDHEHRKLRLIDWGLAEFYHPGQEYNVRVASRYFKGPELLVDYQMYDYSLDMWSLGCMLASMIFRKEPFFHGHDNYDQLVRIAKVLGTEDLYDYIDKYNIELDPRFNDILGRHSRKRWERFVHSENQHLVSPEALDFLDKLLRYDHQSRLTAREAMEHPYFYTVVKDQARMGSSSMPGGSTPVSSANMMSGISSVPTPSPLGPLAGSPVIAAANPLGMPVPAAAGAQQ
CK2A1 (CK2α/β), sequence (P67870 whole entry partner, species assumed): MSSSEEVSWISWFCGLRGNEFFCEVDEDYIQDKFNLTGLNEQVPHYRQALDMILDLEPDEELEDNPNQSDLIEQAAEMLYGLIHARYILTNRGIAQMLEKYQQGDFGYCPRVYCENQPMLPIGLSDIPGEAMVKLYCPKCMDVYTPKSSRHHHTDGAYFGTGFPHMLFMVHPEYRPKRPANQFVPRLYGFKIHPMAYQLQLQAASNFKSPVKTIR

Row | pIC50 | Structure (SMILES)
1 | 8.97 | CCNc1nc(Nc2cc(C#N)cc(N3CCN([C@H]4C[C@@H](O)C4)CC3)c2Cl)nn2c(C#N)cnc12 [Example 610, 2-[(2-chloro-5-cyano-3-{4-[(1a,3s)-3-hydroxycyclobutyl]piperazin-1-yl}phenyl)amino]-4-(ethylamino)imidazo[2,1-f][1,2,4]triazine-7-carbonitrile]
2 | 9.21 | N#Cc1cc(Nc2nc(NC3CC3)c3ncc(C#N)n3n2)c(Cl)c(N2CCC3(CCCN3)C2)c1 (racemic) [Example 31, (+/−) 2-((2-chloro-5-cyano-3-(1,7-diazaspiro[4.4]non-7-yl)phenyl)amino)-4-(cyclopropylamino)imidazo [2,1-f][1,2,4]triazine-7-carbonitrile]
3 | 8.17 | N#Cc1cc(Nc2nc(NC3CC3)c3ncc(C#N)n3n2)c(Cl)c(C(O)C2CN(C3COC3)C2)c1 (stereo not shown) [Example 656, 2-((2-chloro-5-cyano-3-(hydroxy(1-(oxetan-3-yl)azetidin-3-yl)methyl)phenyl)amino)-4-(cyclopropylamino)imidazo[2,1-f][1,2,4]triazine-7-carbonitrile]
4 | 9.13 | CS(=O)(=O)N1CC(N2CCN(c3cc(C#N)cc(Nc4nc(NC5CC5)c5ncc(C#N)n5n4)c3Cl)CC2)C1 [Example 73]
5 | 8.57 | COC(=O)N1CC(N2CCN(c3cc(C#N)cc(Nc4nc(NC5CC5)c5ncc(C#N)n5n4)c3Cl)CC2)C1 [Example 53, methyl 3-(4-(2-chloro-5-cyano-3-((7-cyano-4-(cyclopropylamino)imidazo[2,1-f][1,2,4]triazin-2-yl)amino)phenyl)-1-piperazinyl)-1-azetidinecarboxylate]
6 | 9.07 | N#Cc1cc(Nc2nc(NC3CC3)c3ncc(C#N)n3n2)c(Cl)c(N2CCN(CC3COCCO3)CC2)c1 (stereo not shown) [Example 532, 2-((3-(4-((1,4-dioxan-2-yl)methyl)piperazin-1-yl)-2-chloro-5-cyanophenyl)amino)-4-(cyclopropylamino)imidazo[2,1-f][1,2,4]triazine-7-carbonitrile]
7 | 9.29 | CC(=O)N[C@@H]1CN(c2cc(C#N)cc(Nc3nc(NC4CC4)c4ncc(C#N)n4n3)c2Cl)C[C@H]1O (racemic) [Example 10, (+/−) N-((3R,4R)-1-(2-chloro-5-cyano-3-((7-cyano-4-(cyclopropylamino)imidazo [2,1-f][1,2,4]triazin-2-yl)amino)phenyl)-4-hydroxy-3-pyrrolidinyl)acetamide]
8 | 8.80 | N#CCC1(NC2CCN(c3cc(C#N)cc(Nc4nc(NC5CC5)c5ncc(C#N)n5n4)c3Cl)CC2)COC1 (racemic) [Example 114, (+/−) 2-((2-chloro-5-cyano-3-(4-((3-(cyanomethyl)-3-oxetanyl)amino)-1-piperidinyl)phenyl)amino)-4-(cyclopropylamino)imidazo [2,1-f][1,2,4]triazine-7-carbonitrile]
9 | 9.21 | N#Cc1cc(Nc2nc(NC3CC3)c3ncc(C#N)n3n2)c(Cl)c(N2CCC(N[C@@H]3CCCC[C@@H]3F)CC2)c1 (racemic) [Example 127, (+/−) 2-(2-chloro-5-cyano-3-(4-((1R,2R)-2-fluorocyclohexylamino)piperidin-1-yl)phenylamino)-4-(cyclopropylamino)imidazo [1,2-f][1,2,4]triazine-7-carbonitrile]
10 | 8.48 | COC(=O)N1CC(N2CCN(c3cc(OC(F)F)cc(Nc4nc(NC5CC5)c5ncc(C#N)n5n4)c3Cl)CC2)C1 [Example 562, methyl 3-(4-(2-chloro-3-((7-cyano-4-(cyclopropylamino)imidazo[2,1-f][1,2,4]triazin-2-yl)amino)-5-(difluoromethoxy)phenyl)piperazin-1-yl)azetidine-1-carboxylate]
11 | 9.14 | CCNc1nc(Nc2cc(C#N)cc(C3CCN(C4CN(C(C)=O)C4)CC3)c2Cl)nn2c(C#N)cnc12 [Example 356, 2-((3-(1-(1-acetyl-3-azetidinyl)-4-piperidinyl)-2-chloro-5-cyanophenyl)amino)-4-(ethylamino)imidazo [2,1-f][1,2,4]triazine-7-carbonitrile]
12 | 9.16 | COCC(=O)N1CCN(c2cc(C#N)cc(Nc3nc(NC4CC4)c4ncc(C#N)n4n3)c2Cl)CC1 [Example 77]
13 | 7.63 | COC(=O)N[C@H]1CCN(c2cc(C#N)cc(Nc3nc(NC4CC4)c4ncc(C#N)n4n3)c2Cl)C[C@@H]1N(C)CC(C)(C)O [Example 765, methyl N-[(3S,4S)-1-(2-chloro-5-cyano-3-{[7-cyano-4-(cyclopropylamino)imidazo [2,1-f][1,2,4]triazin-2-yl]amino}phenyl)-3-[(2-hydroxy-2-methylpropyl)(methyl)amino]piperidin-4-yl] carbamate]
14 | 8.93 | N#Cc1cc(Nc2nc(NC3CC3)c3ncc(C#N)n3n2)c(Cl)c(C2CCN(C3CC4(COC4)C3)CC2)c1 [Example 222, 2-((2-chloro-5-cyano-3-(1-(2-oxaspiro[3.3]hept-6-yl)-4-piperidinyl)phenyl)amino)-4-(cyclopropylamino)imidazo[2,1-f][1,2,4]triazine-7-carbonitrile]
15 | 8.68 | N#Cc1cc(Nc2nc(NC3CC3)c3ncc(C#N)n3n2)c(Cl)c(N2CCN(C3(CO)COC3)CC2)c1 [Example 538, 2-((2-chloro-5-cyano-3-(4-(3-(hydroxymethyl)oxetan-3-yl)piperazin-1-yl)phenyl)amino)-4-(cyclopropylamino)imidazo[2,1-f][1,2,4]triazine-7-carbonitrile]
16 | 8.52 | N#Cc1cc(Nc2nc(NC3CC3)c3ncc(C#N)n3n2)c(Cl)c(N2CCN(C3CCC3=O)CC2)c1 (stereo not shown) [Example 62, 2-((2-chloro-5-cyano-3-(4-(2-oxocyclobutyl)piperazin-1-yl)phenyl)amino)-4-(cyclopropylamino) imidazo[2,1-f][1,2,4] triazine-7-carbonitrile]
17 | 8.92 | CCNc1nc(Nc2cc(C#N)cc(N3CC[C@@H](NC(=O)OC)C(NCC(C)(C)O)C3)c2Cl)nn2c(C#N)cnc12 (stereo in doubt) [Example 760, methyl N-[(3S,4R)-1-(2-chloro-5-cyano-3-{[7-cyano-4-(ethylamino)imidazo[2,1-f][1,2,4]triazin-2-yl]amino}phenyl)-3-[(2-hydroxy-2-methylpropyl)amino]piperidin-4-yl] carbamate]
18 | 9.24 | CC1(C(=O)N2CCC(c3cc(C#N)cc(Nc4nc(NC5CC5)c5ncc(C#N)n5n4)c3Cl)CC2)COC1 [Example 233, 2-((2-chloro-5-cyano-3-(1-((3-methyl-3-oxetanyl)carbonyl)-4-piperidinyl)phenyl)amino)-4-(cyclopropylamino)imidazo[2,1-f][1,2,4]triazine-7-carbonitrile]
19 | 8.81 | N#Cc1cnc2c(NC3CC3)nc(Nc3cc(C(F)F)cc(N4CCC(C(=O)O)CC4)c3Cl)nn12 [Example 545, 1-(2-chloro-3-((7-cyano-4-(cyclopropylamino)imidazo[2,1-f][1,2,4]triazin-2-yl)amino)-5-(difluoromethyl)phenyl)piperidine-4-carboxylic acid]
20 | 8.32 | CC(=O)N1CC(N2CCC(c3cc(C#N)cc(Nc4nc(NC5CC5)c5ncc(C#N)n5n4)c3F)CC2)C1 [Example 637, 2-((3-(1-(1-acetylazetidin-3-yl)piperidin-4-yl)-2-fluoro-5-cyanophenyl)amino)-4-(cyclopropylamino)imidazo[2,1-f][1,2,4]triazine-7-carbonitrile]
21 | 9.10 | CN(C)C(=O)C1CN(c2cc(C#N)cc(Nc3nc(NC4CC4)c4ncc(C#N)n4n3)c2Cl)CCN1 (stereo not shown) [Example 563, 4-(2-chloro-5-cyano-3-((7-cyano-4-(cyclopropylamino)imidazo[2,1-f][1,2,4]triazin-2-yl)amino)phenyl)-N,N-dimethylpiperazine-2-carboxamide]
22 | 8.85 | CCNc1nc(Nc2cc(C#N)cc(N3CC[C@@H](NC(=O)OC)[C@H](N[C@H](C)C(N)=O)C3)c2Cl)nn2c(C#N)cnc12 [Example 758, methl N-[(3R,4R)-3-{[(1S)-1-carbamoylethyl]amino}-1-(2-chloro-5-cyano-3-{[7-cyano-4-(ethylamino)imidazo[2,1-f][1,2,4]triazin-2-yl]amino}phenyl)piperidin-4-yl]carbamate]
23 | 8.65 | COC(=O)Nc1cc(Nc2nc(NC3CC3)c3ncc(C#N)n3n2)c(F)c(N2CCN(C)CC2)c1 [Example 385, methyl (3-((7-cyano-4-(cyclopropylamino)imidazo[2,1-f][1,2,4]triazin-2-yl)amino)-4-fluoro-5-(4-methylpiperazin-1-yl)phenyl)carbamate]
24 | 8.53 | COCCN1CCN(Cc2cc(C#N)cc(Nc3nc(NC4CC4)c4ncc(C#N)n4n3)c2Cl)CC1 [Example 476, 2-[(2-chloro-5-cyano-3-{[4-(2-methoxyethyl)piperazin-1-yl]methyl}phenyl)amino]-4-(cyclopropylamino)imidazo[2,1-f][1,2,4]triazine-7-carbonitrile]
25 | 9.16 | CC1(C)CN2CCN(c3cc(C#N)cc(Nc4nc(NC5CC5)c5ncc(C#N)n5n4)c3Cl)C[C@H]2CO1 [Example 303, (S)-2-((2-chloro-5-cyano-3-(3,3-dimethylhexahydropyrazino[2,1-c][1,4]oxazin-8(1H)-yl)phenyl)amino)-4-(cyclopropylamino)imidazo[2,1-f][1,2,4]triazine-7-carbonitrile, HCl]
26 | 9.22 | COCCOCC(=O)N1CCN(c2cc(C#N)cc(Nc3nc(NC4CC4)c4ncc(C#N)n4n3)c2Cl)CC1 [Example 88, 2-((2-chloro-5-cyano-3-(4-((2-methoxyethoxy)acetyl)-1-piperazinyl)phenyl)amino)-4-(cyclopropylamino) imidazo[2,1-f][1,2,4] triazine-7-carbonitrile]
27 | 9.14 | N#Cc1cc(Nc2nc(NC3CC3)c3ncc(C#N)n3n2)c(Cl)c(N2CCN(C(=O)CC3CC3)CC2)c1 [Example 86]
28 | 8.43 | CC1(C(=O)N2CC(N3CCN(c4cc(C#N)cc(Nc5nc(NC6CC6)c6ncc(C#N)n6n5)c4Cl)CC3)C2)COC1 [Example 522, 2-[(2-chloro-5-cyano-3-{4-[1-(3-methyloxetane-3-carbonyl)azetidin-3-yl]piperazin-1-yl}phenyl)amino]-4-(cyclopropylamino)imidazo[2,1-f][1,2,4]triazine-7-carbonitrile]
